Results taken from ChEMBL document CHEMBL3638907, “Substituted pyrazolo[1,5-a]pyrimidine compounds as Trk kinase inhibitors” (2014).

Target: Tyrosine-protein kinase JAK2 (Homo sapiens, UniProt O60674)
Test: Inhibition Assay: Compounds of Formula I were screened for their ability to inhibit Jak2 using the general enzyme inhibition assay method, in which the assay mixture contained 500 μM ATP, 10 μM Omnia Y7 peptide (Catalog # IVGN KNZ3071C, Invitrogen Corporation, Carlsbad, Calif.) and 4 nM Jak2 in a total volume of 20 μL. […] (catalog # IVGN PV4210).

Chain of Tyrosine-protein kinase JAK2 (O60674 whole entry): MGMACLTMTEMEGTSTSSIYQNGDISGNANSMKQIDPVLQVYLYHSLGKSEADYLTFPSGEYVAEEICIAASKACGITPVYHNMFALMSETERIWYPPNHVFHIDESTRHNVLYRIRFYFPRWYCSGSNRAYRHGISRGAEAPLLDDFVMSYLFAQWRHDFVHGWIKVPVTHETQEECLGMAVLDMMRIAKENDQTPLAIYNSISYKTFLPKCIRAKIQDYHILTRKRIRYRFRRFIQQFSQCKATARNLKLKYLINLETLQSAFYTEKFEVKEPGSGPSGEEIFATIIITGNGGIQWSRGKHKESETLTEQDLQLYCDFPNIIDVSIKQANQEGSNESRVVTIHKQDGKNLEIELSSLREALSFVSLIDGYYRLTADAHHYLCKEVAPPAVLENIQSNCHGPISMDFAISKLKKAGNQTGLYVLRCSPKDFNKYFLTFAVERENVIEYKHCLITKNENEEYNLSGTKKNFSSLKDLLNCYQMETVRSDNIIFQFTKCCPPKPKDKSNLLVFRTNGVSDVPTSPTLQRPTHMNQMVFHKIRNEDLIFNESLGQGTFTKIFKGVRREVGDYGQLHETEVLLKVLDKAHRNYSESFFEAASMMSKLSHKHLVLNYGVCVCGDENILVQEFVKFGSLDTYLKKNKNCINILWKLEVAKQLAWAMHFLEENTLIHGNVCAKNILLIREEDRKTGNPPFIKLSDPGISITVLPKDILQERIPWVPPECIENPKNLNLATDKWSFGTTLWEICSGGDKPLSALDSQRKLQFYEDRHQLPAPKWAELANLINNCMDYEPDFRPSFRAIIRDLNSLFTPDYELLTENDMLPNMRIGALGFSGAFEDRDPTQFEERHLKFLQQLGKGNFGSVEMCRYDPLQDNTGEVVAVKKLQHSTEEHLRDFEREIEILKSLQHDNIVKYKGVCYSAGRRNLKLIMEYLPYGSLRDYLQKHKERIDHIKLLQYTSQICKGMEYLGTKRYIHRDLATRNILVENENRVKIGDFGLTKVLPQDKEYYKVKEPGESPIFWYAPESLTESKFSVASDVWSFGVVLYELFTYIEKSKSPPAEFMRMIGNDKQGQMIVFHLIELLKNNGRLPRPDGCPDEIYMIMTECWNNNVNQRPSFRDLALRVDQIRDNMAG

| IC50 | SMILES |
| --- | --- |
| 472 nM | COCCOc1ccc(F)cc1[C@H]1CCCN1c1ccn2ncc(C(=O)NC3CC3)c2n1 |
| > 1000 nM | COc1ncc(F)cc1[C@H]1CCCN1c1ccn2ncc(C(=O)NCCCNC(=O)OC(C)(C)C)c2n1 |
